Experimental data from article PMC9728198, “Characterization of Two Self-Sufficient Monooxygenases, CYP102A15 and CYP102A170, as Long-Chain Fatty Acid Hydroxylases” (Journal of Microbiology and Biotechnology, 2020).
Where “and” joins values, the source holds several entries; their conditions need not be identical. Equal values may be shown once. Read-outs that look alike come from different tables or passages of the source.

Key:
CYP102A15 [1] = target: T1, CYP102A15 (Bacillus sp. (in: firmicutes), UniProt A0A2S1UG59); experiment: NADPH consumption assay and kinetic parameters; settings: for CE (coupling efficiency) / PFR (product formation rate) / Km: CYP102A15; for Km: read-out: Km (Michaelis–Menten constant)
Protocol: (§1) The NADPH consumption assay was performed at 340 nm. […] The total volume of the reaction was 250 μl. The obtained data were analyzed using GraphPad Prism software, and experiments were replicated at least three times.
(§2) Saturated fatty acids, unsaturated fatty acids and other cyclic compounds were the three main types of substrates used to determine the NADPH oxidation rate. […] The coupling efficiencies, product formation rates (PFR), and Michaelis–Menten constants (Km) of CYP102A15 and CYP102A170 were also investigated.

CYP102A15 [2] = target: T1, CYP102A15; experiment: Spectral substrate binding titration (low-spin to high-spin Soret shift)
Protocol: (§3) The binding affinity was evaluated by spectrometrically analyzing the enzyme binding of each substrate.
(§4) At the beginning, substrates were selected as fatty acids with different chain lengths and the unsaturation extent was tested for enzyme binding capacity. Substrate binding was observed by alternating from low-spin heme iron with a Soret band maximum at 419 nm in the UV-visible spectrum to high-spin heme iron with a Soret band maximum at 389 nm (Figs. 4, S3, and S4).

CYP102A170 [3] = target: T2, CYP102A170 (Paenibacillus sp., UniProt A0A2U8SZJ5); experiment: as above
Protocol: as §3, §4

CYP102A170 [4] = target: T2, CYP102A170; experiment: NADPH consumption assay and kinetic parameters; settings: for Km: read-out: Km (Michaelis–Menten constant)
Protocol: as §1, §2

CYP102A170 [5] = target: T2, CYP102A170
Protocol: as §1, §2
CCCCCCCCCCCCCC(=O)O = experiment: purified protein, by the assay type
Protocol: as §1, §2

[6] = read-out: Kd (dissociation constant), CYP102A15, single-binding model for spectral change ΔA (A389–A419), 1 μM of protein
[7] = read-out: Kd (dissociation constant), CYP102A170, single-binding model for spectral change ΔA (A390–A420), 1 μM of protein

T2 sequence (A0A2U8SZJ5 1-1057 limits assumed): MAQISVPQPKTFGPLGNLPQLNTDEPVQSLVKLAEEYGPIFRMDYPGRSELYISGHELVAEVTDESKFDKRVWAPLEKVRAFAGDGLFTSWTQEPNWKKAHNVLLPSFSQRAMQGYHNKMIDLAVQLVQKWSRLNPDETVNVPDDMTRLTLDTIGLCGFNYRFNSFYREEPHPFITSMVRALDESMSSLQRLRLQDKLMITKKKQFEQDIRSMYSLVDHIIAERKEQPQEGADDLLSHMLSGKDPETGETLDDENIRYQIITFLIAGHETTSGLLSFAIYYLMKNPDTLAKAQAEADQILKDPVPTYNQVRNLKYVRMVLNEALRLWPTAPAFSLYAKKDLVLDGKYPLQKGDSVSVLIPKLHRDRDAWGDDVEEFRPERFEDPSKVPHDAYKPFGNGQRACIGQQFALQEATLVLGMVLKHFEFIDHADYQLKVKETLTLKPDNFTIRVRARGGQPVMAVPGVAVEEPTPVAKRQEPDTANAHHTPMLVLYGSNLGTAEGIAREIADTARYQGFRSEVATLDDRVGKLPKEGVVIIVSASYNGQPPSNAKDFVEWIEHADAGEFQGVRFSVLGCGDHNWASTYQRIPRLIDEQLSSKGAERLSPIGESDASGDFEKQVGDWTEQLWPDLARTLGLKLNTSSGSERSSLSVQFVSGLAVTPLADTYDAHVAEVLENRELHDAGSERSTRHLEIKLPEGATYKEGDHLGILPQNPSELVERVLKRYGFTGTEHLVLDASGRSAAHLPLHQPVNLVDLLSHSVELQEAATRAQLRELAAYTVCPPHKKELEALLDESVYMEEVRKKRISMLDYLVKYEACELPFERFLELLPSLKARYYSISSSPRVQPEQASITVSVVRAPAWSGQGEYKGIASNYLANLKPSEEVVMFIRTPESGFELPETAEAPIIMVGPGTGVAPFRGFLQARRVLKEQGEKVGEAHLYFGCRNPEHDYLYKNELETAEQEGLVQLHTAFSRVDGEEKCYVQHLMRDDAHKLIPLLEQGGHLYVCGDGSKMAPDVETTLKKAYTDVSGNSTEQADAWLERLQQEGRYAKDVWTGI
T1 sequence (A0A2S1UG59 1-1047): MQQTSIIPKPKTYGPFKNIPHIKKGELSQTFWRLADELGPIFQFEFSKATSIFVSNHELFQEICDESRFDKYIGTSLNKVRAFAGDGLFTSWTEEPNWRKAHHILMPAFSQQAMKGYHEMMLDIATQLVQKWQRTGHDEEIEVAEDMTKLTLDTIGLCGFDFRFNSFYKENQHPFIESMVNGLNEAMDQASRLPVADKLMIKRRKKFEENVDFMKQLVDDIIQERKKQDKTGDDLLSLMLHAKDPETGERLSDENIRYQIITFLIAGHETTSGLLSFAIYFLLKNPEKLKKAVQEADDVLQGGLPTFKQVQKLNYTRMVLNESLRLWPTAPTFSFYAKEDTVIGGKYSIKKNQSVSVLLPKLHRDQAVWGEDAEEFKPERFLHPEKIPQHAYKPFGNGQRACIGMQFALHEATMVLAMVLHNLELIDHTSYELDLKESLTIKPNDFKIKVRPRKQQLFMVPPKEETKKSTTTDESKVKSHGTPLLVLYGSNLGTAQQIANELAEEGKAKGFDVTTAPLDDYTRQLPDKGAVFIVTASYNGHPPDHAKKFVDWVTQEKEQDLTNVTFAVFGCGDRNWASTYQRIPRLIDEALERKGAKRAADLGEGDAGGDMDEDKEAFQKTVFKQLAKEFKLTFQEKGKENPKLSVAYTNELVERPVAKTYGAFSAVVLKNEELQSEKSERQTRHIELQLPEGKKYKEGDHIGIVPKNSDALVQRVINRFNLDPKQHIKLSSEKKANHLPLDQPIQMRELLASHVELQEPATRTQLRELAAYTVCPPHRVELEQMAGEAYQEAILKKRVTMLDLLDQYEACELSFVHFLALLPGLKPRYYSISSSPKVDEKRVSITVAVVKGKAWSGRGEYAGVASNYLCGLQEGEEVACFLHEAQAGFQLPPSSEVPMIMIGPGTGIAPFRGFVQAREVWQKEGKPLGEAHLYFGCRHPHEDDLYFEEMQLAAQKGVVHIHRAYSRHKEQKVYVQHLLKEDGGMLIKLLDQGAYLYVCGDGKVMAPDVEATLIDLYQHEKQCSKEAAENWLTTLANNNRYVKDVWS

Molecule	CE (coupling efficiency) (CYP102A15 [1]) [%]	PFR (product formation rate) (CYP102A15 [1]) [nmol/ nmol-P450/min]	Kd (CYP102A15 [2]) [µM]	Kd (CYP102A170 [3]) [µM]	also measured
CCCCCCCCCCCCCC(=O)O [Myristic acid]	80	35.91 ± 1.20	14.9 ± 0.68	9.89 ± 0.39	CE (coupling efficiency) (CYP102A170 [4]): 67%; PFR (product formation rate) (CYP102A170 [4]): 37.52 ± 1.90 nmol/ nmol-P450/min
CCCCCCCCCCCCCCCC(=O)O [Palmitic acid]	–	–	11 ± 1.3	5.01 ± 0.23	–
CCCCCCCCCCCCCCCCCC(=O)O [Stearic acid]	–	–	–	3.37 ± 0.2	–
CCCCCCCC/C=C\CCCCCCCC(=O)O [Oleic acid]	85	23.10 ± 5.30	25.7 ± 2.8	2.23 ± 0.09	CE (coupling efficiency) (CYP102A170 [5]): 51%; Km (CYP102A15 [1]): 39.1 ± 6.9 µM; PFR (product formation rate) (CYP102A170 [4]): 41.50 ± 1.30 nmol/ nmol-P450/min; Km (CYP102A170 [4]): 430 ± 98 µM
CYP102A170 (Paenibacillus sp.)	–	–	–	–	Km (CCCCCCCCCCCCCC(=O)O; other: CYP102A170): 17.4 µM and 17.43 ± 1.80 µM
CYP102A15 (Bacillus sp. (in: firmicutes))	–	–	–	–	Km (CCCCCCCCCCCCCC(=O)O; other: CYP102A15): 386.10 ± 39.20 µM
CCCCC/C=C\C/C=C\C/C=C\C/C=C\CCCC(=O)O [Arachidonic acid]	–	–	29.8 ± 1.8	–	–
CCCCC/C=C\C/C=C\CCCCCCCC(=O)O [Linoleic acid]	68	2.70 ± 0.30	13.9 ± 1.5	1.36 ± 0.23	Km (CYP102A15 [1]): 15.3 ± 4.7 µM
CCCCCCCCCCCCCCCCC(=O)O [Margaric acid]	–	–	–	–	Kd (CYP102A15 [2]; [6]): 17.9 ± 1.21 µM; Kd (CYP102A170 [3]; [7]): 2.83 ± 0.17 µM; NADPH consumption rate (CYP102A170 [4]; 250 μM NADPH, 200 μM fatty acid, 0.5–1 μM enzyme, 340 nm): 8.2 nmol/nmol-CYP/min
CCOc1ccc2ccc(=O)oc2c1 [7-ethoxycoumarin]	–	–	–	–	NADPH consumption with cyclic compounds (in words) (CYP102A15 [1]; data not shown, sentence does not name the enzyme, b46 names CYP102A15): consumed the NADPH
CC/C=C\C/C=C\C/C=C\C/C=C\C/C=C\CCCC(=O)O [Eicosapentaenoic acid]	–	–	18.8 ± 3.8	1.3 ± 0.08	–
CCCCCCCCCCCC(=O)O [Lauric acid]	90	7.00 ± 0.10	–	–	CE (coupling efficiency) (CYP102A170 [5]): 72%; Km (CYP102A15 [1]): 21.7 ± 3.6 µM; Kd (CYP102A15 [2]; [6]): 7.78 ± 0.7 µM; Kd (CYP102A170 [3]; [7]): 6.46 ± 0.3 µM; PFR (product formation rate) (CYP102A170 [4]): 31.68 ± 0.70 nmol/ nmol-P450/min; Km (CYP102A170 [4]): 13.4 ± 1.3 µM
